Calls of active or inactive are those of the source. Rule as the data show it, for most assays here: actives have a measured EC50 and inactives only a lower limit.
Experiments:
[1] = biological target: FAD-linked sulfhydryl oxidase ALR (Homo sapiens, UniProt P55789); assay: inhibitors of human ALR sulfhydryl oxidase, dose response, biochemical, H2O2 detection, luminescence, cherry-pick (AID 493248)
BJ [2] = assay: cytotoxicity toward BJ-TERT-LT-ST fibroblasts, dose response, cell-based, RAS-independent, luminescence (AID 1935); format: functional; conditions: Homo sapiens;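 also: BJ fibroblasts immortalized with TERT plus LT and ST oncogenes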
[3] = cytotoxicity toward DRD oncogenic fibroblasts, dose response, cell-based, non-viral oncogenic, luminescence (AID 1934); format: functional; conditions: Homo sapiens
BJ [4] = assay: cytotoxicity toward BJ-TERT fibroblasts, dose response, cell-based, RAS-independent, luminescence (AID 1933); format: functional; conditions: Homo sapiens
BJ [5] = assay: cells; format: functional, cell-based; conditions: Homo sapiens
[6] = biological target: T1, Zinc finger protein mex-5 (Caenorhabditis elegans, UniProt Q9XUB2); assay: MEX-5/TCR-2 RNA interaction inhibitors, dose response, biochemical, C. elegans, fluorescence polarization (AID 1960)
T1 sequence (Q9XUB2 whole entry): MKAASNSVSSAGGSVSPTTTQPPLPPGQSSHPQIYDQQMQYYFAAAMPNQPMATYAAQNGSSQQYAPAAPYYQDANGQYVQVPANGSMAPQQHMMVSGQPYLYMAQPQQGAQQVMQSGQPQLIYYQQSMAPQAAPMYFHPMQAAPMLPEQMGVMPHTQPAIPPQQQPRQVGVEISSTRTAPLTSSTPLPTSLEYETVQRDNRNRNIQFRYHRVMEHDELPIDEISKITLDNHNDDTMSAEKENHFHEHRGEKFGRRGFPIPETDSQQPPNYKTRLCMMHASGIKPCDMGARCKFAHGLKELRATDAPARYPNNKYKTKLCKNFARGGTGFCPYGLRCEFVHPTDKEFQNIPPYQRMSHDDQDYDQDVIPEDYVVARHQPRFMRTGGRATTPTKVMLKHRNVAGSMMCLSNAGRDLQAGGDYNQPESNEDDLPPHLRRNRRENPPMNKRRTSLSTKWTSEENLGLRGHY

[7] = biological target: T2, RNA-binding protein pos-1 (Caenorhabditis elegans, UniProt G5EF15); assay: inhibitors of POS-1/mex-3 RNA binding, dose response, biochemical, fluorescence polarization (AID 1964);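 also: purified POS-1 fused to maltose binding protein made in E. coli; potency of compounds blocking POS-1 binding to fluorescent RNA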
T2 sequence (G5EF15 whole entry): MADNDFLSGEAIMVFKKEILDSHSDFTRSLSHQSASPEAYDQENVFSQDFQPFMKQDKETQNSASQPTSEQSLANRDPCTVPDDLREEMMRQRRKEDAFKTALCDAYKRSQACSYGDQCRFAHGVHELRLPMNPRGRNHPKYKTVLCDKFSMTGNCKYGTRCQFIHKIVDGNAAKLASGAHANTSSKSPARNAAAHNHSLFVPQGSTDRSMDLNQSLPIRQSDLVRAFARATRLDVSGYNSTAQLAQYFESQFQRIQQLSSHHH

[8] = biological target: T3, Calpain-2 catalytic subunit (Sus scrofa, UniProt P43367); assay: pig calpain II inhibitor potency, dose response, biochemical, fluorogenic peptide substrate (AID 1420); format: functional
T3 sequence (P43367 whole entry): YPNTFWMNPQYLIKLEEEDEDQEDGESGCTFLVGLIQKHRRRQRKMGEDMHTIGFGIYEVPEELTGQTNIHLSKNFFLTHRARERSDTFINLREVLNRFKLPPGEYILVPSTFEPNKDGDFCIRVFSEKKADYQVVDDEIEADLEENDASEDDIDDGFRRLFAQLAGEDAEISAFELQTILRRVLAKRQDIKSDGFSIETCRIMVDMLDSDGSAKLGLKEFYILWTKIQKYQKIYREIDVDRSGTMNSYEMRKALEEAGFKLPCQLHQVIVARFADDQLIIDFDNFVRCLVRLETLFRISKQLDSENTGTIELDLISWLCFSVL

[9] = biological target: T4, Ubiquitin-conjugating enzyme E2 N (Homo sapiens, UniProt P61088); format: functional;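 also: Dose-response confirmation in a TR-FRET assay detecting UBC13-driven polyubiquitin chain formation, inhibition measured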
T4 sequence (P61088 whole entry): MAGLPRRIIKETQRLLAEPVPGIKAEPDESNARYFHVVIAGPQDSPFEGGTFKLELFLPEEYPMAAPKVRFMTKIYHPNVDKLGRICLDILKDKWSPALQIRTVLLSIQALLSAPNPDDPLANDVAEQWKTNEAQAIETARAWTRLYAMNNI

INS1 = assay: beta cell apoptosis inhibitors, cytokine rescue, dose response, luminescence, retest (AID 449756); format: functional, cell-based; conditions: Rattus norvegicus;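 also: cell death triggered by IL-1 beta plus TNF-alpha plus IFN-gamma mixture; protective hits raise ATP signal compared with cytokine alone wells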
[10] = biological target: Luciferin 4-monooxygenase (Photinus pyralis, UniProt P08659); assay: firefly luciferase enzyme inhibitors, dose response, biochemical, luminescence (AID 1891)
Chain of Luciferin 4-monooxygenase (P08659 whole entry): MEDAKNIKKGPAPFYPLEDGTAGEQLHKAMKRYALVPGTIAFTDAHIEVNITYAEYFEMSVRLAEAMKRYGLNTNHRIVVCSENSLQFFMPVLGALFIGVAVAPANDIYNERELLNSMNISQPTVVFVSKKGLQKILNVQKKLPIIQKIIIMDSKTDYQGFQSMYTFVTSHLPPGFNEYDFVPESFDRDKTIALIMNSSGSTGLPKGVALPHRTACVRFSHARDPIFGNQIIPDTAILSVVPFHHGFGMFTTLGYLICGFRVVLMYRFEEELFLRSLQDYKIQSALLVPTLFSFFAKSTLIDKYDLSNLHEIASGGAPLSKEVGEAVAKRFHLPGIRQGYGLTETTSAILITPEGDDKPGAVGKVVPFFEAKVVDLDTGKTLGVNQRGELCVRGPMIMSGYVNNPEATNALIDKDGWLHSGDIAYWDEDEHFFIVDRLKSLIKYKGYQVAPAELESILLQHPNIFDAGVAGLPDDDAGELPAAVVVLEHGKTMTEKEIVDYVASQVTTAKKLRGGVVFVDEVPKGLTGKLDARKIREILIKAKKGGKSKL

[11] = Luminescence Cell-Based Dose Confirmation HTS to Identify Inhibitors of Platelet Dense Granule Release. [Related pubchem assays: 1663 (Primary HTS), 1678 (Summary of Project)]; format: functional
cells [12] = format: functional, cell-based
cells [13] = format: functional, cell-based; remark: listed apart in the source
cells [14] = format: functional
Cytochrome P450 2D6 = Cytochrome P450 2D6 (Homo sapiens, UniProt P10635);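 also: CYP2D6 member of a cytochrome P450 panel assay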
Chain of Cytochrome P450 2D6 (P10635 whole entry): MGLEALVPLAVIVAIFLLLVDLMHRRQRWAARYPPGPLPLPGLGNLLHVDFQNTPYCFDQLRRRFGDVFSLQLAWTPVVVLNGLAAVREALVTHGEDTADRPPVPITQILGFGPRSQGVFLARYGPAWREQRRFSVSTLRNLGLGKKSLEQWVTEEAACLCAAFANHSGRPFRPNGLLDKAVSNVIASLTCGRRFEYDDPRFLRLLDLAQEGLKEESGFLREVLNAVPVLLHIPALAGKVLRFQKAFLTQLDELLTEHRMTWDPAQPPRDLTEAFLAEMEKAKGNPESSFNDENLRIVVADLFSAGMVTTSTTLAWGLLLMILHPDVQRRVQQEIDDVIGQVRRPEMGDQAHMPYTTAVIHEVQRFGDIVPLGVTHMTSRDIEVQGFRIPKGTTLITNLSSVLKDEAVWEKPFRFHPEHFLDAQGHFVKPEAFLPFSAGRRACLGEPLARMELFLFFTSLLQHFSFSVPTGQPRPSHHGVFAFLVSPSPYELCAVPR

[15] = HEp-2 cell cytotoxicity, dose response, cytotoxicity control for RSV inhibitor project, HTS (AID 2410); format: functional; conditions: human respiratory syncytial virus
[16] = Luminescence Cell-Based Dose Retest to Confirm Inhibitors of Cancer Stem Cells. [Related pubchem assays (depositor defined):AID2717, AID2721]; format: functional; conditions: Homo sapiens
[17] = microbe, parasite or virus in culture; format: functional; conditions: Mycobacterium tuberculosis
[18] = cytotoxicity toward NIH3T3 fibroblasts, dose response, counter-screen, cell-based, ATP luminescence, mouse fibroblasts (AID 2010); format: functional;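 also: cells exposed to compound for about 90 hours before reading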
[19] = inhibitors of intracellular T. cruzi replication, confirmation, NIH3T3 host cells, beta-gal luminescence (AID 2044); format: functional, cell-based;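 also: intracellular parasites grown in NIH/3T3 mouse fibroblasts as host cells; luminescent beta-galactosidase reporter signal from transgenic T. cruzi replicating inside host cells; inhibitors lower the luminescence signal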
Cytochrome P450 2C9 = Cytochrome P450 2C9 (Homo sapiens, UniProt P11712)
Chain of Cytochrome P450 2C9 (P11712 whole entry): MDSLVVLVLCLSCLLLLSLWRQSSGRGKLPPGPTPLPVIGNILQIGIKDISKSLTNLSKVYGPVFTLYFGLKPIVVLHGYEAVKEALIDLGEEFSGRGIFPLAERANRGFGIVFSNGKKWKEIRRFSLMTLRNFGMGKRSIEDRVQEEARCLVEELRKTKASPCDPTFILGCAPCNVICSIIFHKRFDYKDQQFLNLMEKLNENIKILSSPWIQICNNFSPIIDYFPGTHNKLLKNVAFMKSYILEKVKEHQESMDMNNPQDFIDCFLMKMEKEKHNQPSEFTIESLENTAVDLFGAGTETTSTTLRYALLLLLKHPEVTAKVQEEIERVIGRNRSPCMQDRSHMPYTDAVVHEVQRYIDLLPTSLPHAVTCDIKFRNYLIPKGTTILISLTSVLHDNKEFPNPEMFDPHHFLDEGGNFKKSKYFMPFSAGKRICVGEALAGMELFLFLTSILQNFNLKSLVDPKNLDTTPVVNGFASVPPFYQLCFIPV

Chain of FAD-linked sulfhydryl oxidase ALR (P55789 whole entry): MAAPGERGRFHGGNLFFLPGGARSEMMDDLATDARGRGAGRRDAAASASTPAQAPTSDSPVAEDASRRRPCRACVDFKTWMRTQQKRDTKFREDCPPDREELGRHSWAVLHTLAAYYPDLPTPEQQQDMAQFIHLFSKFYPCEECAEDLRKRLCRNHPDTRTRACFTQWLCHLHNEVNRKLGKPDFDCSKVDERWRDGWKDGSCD

N#CC1=C(N)Oc2cc(N)ccc2C1c1ccc(F)cc1 (configuration not stated)
AC50 [1]: 2.78 µM (active)

O=C(c1ccc(C[S+]([O-])Cc2ccc(Cl)cc2)o1)N1CCN(c2ccccc2)CC1 (configuration not stated)
AC50 [1]: > 100 µM (inactive)

CCCC1=Nc2cc(C(=O)N3CCC(C(=O)OCC)CC3)ccc2Sc2ccccc21
EC50 (BJ [2]): > 150 µM (not active)
EC50 [3]: 126 µM (active)
EC50 (BJ [4]): > 150 µM (not active)
EC50 (BJ [5]): > 150 µM (not active)

CCOCCCn1/c(=N/C(=O)c2cccs2)c(C#N)cc2c(=O)n3cccc(C)c3nc21
EC50 [6]: > 150 µM (not active)
EC50 [7]: > 300 µM (not active)

CCN(CC)C(=O)CSc1nnc(-c2cc(OC)cc(OC)c2)o1
IC50 [8]: > 50 µM (not active)

Cc1ccc2c(c1)N(C(=O)CCC(=O)NCCCN1CCC(Cc3ccccc3)CC1)CCO2
IC50 [9]: > 20 µM (inactive)
AC50 (INS1): 20.4 µM (active)

O=C(O)c1ccccc1-n1c2ccccc2c2ccccc21
EC50 [6]: > 300 µM (not active)
EC50 [7]: > 300 µM (not active)

COc1ccc(-c2c(-c3ccc(C#N)cc3)oc(=O)c3cc(OC)c(OC)cc23)cc1
IC50 [9]: > 20 µM (inactive)

CCCCOC(=O)c1ccc(N=Nc2c(O)nc(O)c(C#N)c2C)cc1
EC50 [10]: > 112 µM (not active)
EC50 [6]: > 300 µM (inconclusive)
EC50 [7]: > 300 µM (not active)
EC50 [11]: > 112 µM (not active)

O=C(NCCCn1ccnc1)C1CCN(S(=O)(=O)c2cc([N+](=O)[O-])ccc2Cl)CC1
IC50 [9]: > 20 µM (inactive)

CCCCc1ccc(NC(=O)C2CCN(S(C)(=O)=O)CC2)cc1
EC50 (cells [12]): > 350 µM (not active)
EC50 (cells [13]): > 350 µM (not active)

O=C(CCN1C(=O)S/C(=C\c2ccc(F)cc2)C1=O)Nc1ccc(C(=O)O)c(O)c1
EC50 (cells [12]): > 350 µM (not active)
EC50 (cells [13]): 3.94 µM (active)
IC50 (cells [14]): 7.61 µM (active)

C/C(=N\Nc1ccc([N+](=O)[O-])cc1)c1cccc(N)c1
AC50 (Cytochrome P450 2D6): 17.8 µM (inconclusive)
CC50 [15]: 22 µM (active)
AC50 [1]: 0.14 µM (active)

COc1cccc(/C=N/NC(=O)c2ccc(-c3ccccc3)cc2)c1O
EC50 (cells [12]): 166 µM (active)
EC50 (cells [13]): 56.6 µM (active)
AC50 [16]: 3.26 µM (active)
AC50 (INS1): 3.83 µM (active)

COc1ccc(N2CCN(C(=O)c3ccc(C)cc3Cl)CC2)cc1
AC50 [1]: 3.97 µM (active)

CC1=NN2C(=N)/C(=C\c3cc(C)n(Cc4ccccc4)c3C)C(=O)N=C2S1
EC50 (cells [12]): > 350 µM (not active)
EC50 (cells [13]): > 350 µM (not active)
AC50 [1]: 0.405 µM (active)

CC(=O)O/N=C1\C(=O)N(Cc2ccc(C)cc2)c2ccccc21
IC50 [8]: 15.5 µM (not active)

Cc1ccc(OCCNC(=O)CCc2nc(O)c3c4c(sc3n2)CCCC4)cc1
EC50 (cells [12]): > 350 µM (not active)
EC50 (cells [13]): > 350 µM (not active)

Cc1ccc(C)c(NS(=O)(=O)c2ccc(OCC(=O)NCc3cccnc3)cc2)c1
EC50 (BJ [2]): > 150 µM (inconclusive)
EC50 [3]: > 150 µM (not active)
EC50 (BJ [4]): > 150 µM (not active)
AC50 (INS1): 8.78 µM (active)
EC50 (BJ [5]): 18.1 µM (active)

COc1cc(OC)c(C2C(C#N)=C(N)OC3=C2C(=O)CC(C)C3)cc1OC (configuration not stated)
EC50 [6]: > 300 µM (not active)
EC50 [7]: > 300 µM (not active)

COc1ccc(NC(=O)c2cccs2)cn1
EC50 (cells [12]): > 350 µM (not active)
EC50 (cells [13]): 48.3 µM (active)

COc1cc(NC(=O)CN2c3ccccc3CC2C)cc(OC)c1OC (configuration not stated)
AC50 [1]: 0.394 µM (active)

CC(C)(O)[C@H]1O[C@H]2CC[C@@]3(C)[C@@](O)(CC[C@H]4Cc5c([nH]c6ccccc56)[C@@]43C)C2=CC1=O [PAXILLINE]
EC50 [6]: 12.3 µM (active)
EC50 [7]: 16.7 µM (active)
CC50 [17]: > 40 µM (active)

Cc1[nH]c2ccccc2c1CCN(Cc1cccnc1)C(S)=Nc1cccc(F)c1
IC50 [8]: 44.4 µM (not active)
EC50 [18]: > 60 µM (not active)
EC50 [19]: 0.698 µM (active)

COc1ccc(C(=O)NCCc2nc3cc([N+](=O)[O-])ccc3n2C)cc1
EC50 (cells [12]): > 350 µM (not active)
EC50 (cells [13]): > 350 µM (not active)

CC(C)c1cc(NC(=O)CCl)on1
EC50 (BJ [2]): > 150 µM (not active)
EC50 [3]: > 150 µM (inconclusive)
EC50 (BJ [4]): > 150 µM (not active)
EC50 (BJ [5]): > 150 µM (not active)

COc1ccc(/C=N/NC(=O)CCc2c(C)n[nH]c2C)cc1O
AC50 [1]: 3.71 µM (active)

Cc1ccc(C(C)C)c(OCCN=C(S)Nc2cccc3ccccc23)c1
IC50 [8]: 6.63 µM (not active)

COc1ccccc1NC(=O)c1cc(S(=O)(=O)N2CCC3(CC2)OCCO3)ccc1F
IC50 [9]: > 20 µM (inactive)

Cc1ccc(C(=O)O)cc1-n1c(C)cc(C=O)c1C
EC50 [6]: > 300 µM (not active)
EC50 [7]: > 300 µM (not active)

CCOC(=O)CSc1nc(C(C)(C)C)cc(C(F)(F)F)c1C#N
IC50 [9]: > 20 µM (inactive)

COC(=O)c1c(NC(=O)CC2Nc3ccccc3NC2=O)sc(C)c1C (configuration not stated)
AC50 (Cytochrome P450 2D6): 25.1 µM (inconclusive)
EC50 [6]: > 300 µM (inconclusive)
EC50 [7]: > 300 µM (not active)
AC50 (Cytochrome P450 2C9): 17.8 µM (inconclusive)

CN(C)c1ccnc(Oc2ccc(C(C)(C)C)cc2)c1C#N
IC50 [8]: 4.48 µM (not active)

CCOC(=O)c1c(N)sc(C(=O)N2CCCCCC2)c1C
IC50 [8]: > 50 µM (not active)

Cc1ccc(/C=C/C(=O)O)cc1S(=O)(=O)N1CCCCC1
EC50 [10]: > 112 µM (not active)
EC50 [6]: > 300 µM (not active)
EC50 [7]: > 300 µM (not active)
EC50 [11]: > 112 µM (not active)

CC(=O)c1ccc(-c2ccc(C(=O)N3CCN(c4ccc(F)cc4)CC3)o2)cc1
IC50 [8]: 6.42 µM (not active)
